According to ChEMBL document CHEMBL1201862, “PubChem BioAssay data set” (2004):
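1) Cells in 96-well plates. 2) Compound, 48 h, 5 concentrations. 3) Linear interpolation between surrounding doses. 4) Unreached endpoint = highest concentration. The concentration for 50% growth inhibition is given as GI50.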 The source made the active and inactive calls. No stated cut-off is given here; in the data, active = GI50 up to about 1.1 µM and inactive = higher.

Assays:
Experiment in all cases: NCI tumour cell line growth inhibition, 48 h
RXF 393 = tested on: RXF 393
OVCAR-4 = tested on: OVCAR-4
UACC-62 = tested on: UACC-62
SK-MEL-2 = tested on: SK-MEL-2
LOX IMVI = tested on: LOX IMVI
UO-31 = tested on: UO-31
ACHN = tested on: ACHN
SK-MEL-28 = tested on: SK-MEL-28
DU-145 = tested on: DU-145
BT-549 = tested on: BT-549
TK-10 = tested on: TK-10
CCRF-CEM = tested on: CCRF-CEM
OVCAR-5 = tested on: OVCAR-5
A498 = tested on: A498
SNB-75 = tested on: SNB-75
RPMI-8226 = tested on: RPMI-8226
MOLT-4 = tested on: MOLT-4
OVCAR-3 = tested on: OVCAR-3
U-251 = tested on: U-251
786-0 = tested on: 786-0

| SMILES | GI50 (RXF 393) | GI50 (OVCAR-4) | GI50 (UACC-62) | GI50 (SK-MEL-2) | GI50 (LOX IMVI) | GI50 (UO-31) | GI50 (ACHN) | GI50 (SK-MEL-28) | GI50 (DU-145) | GI50 (BT-549) | GI50 (TK-10) | GI50 (CCRF-CEM) | GI50 (OVCAR-5) | GI50 (A498) | GI50 (SNB-75) | GI50 (RPMI-8226) | GI50 (MOLT-4) | GI50 (OVCAR-3) | GI50 (U-251) | GI50 (786-0) |
| --- | --- | --- | --- | --- | --- | --- | --- | --- | --- | --- | --- | --- | --- | --- | --- | --- | --- | --- | --- | --- |
| O=[N+]([O-])c1nccn1CCCNc1ccnc2cc(Cl)ccc12 | 4.26 µM (inactive) | 6.41 µM (inactive) | 6.21 µM (inactive) | 4.29 µM (inactive) | 4.63 µM (inactive) | 5.4 µM (inactive) | 4.75 µM (inactive) | > 9.86 µM (inactive) | > 7.74 µM (inactive) | 8.69 µM (inactive) | 3.53 µM (inactive) | 5.38 µM (inactive) | 14.4 µM (inactive) | 5.08 µM (inactive) | 6.62 µM (inactive) | 4.34 µM (inactive) | 3.64 µM (inactive) | 1.77 µM (inactive) | 6.82 µM (inactive) | 3.76 µM (inactive) |
| COc1cc2nc(-c3cccs3)oc(=O)c2cc1OC | > 100 µM (inactive) | > 100 µM (inactive) | > 100 µM (inactive) | > 100 µM (inactive) | > 100 µM (inactive) | > 100 µM (inactive) | > 100 µM (inactive) | > 100 µM (inactive) | > 100 µM (inactive) | 42 µM (inactive) | > 100 µM (inactive) | > 100 µM (inactive) | > 100 µM (inactive) | > 100 µM (inactive) | > 100 µM (inactive) | > 100 µM (inactive) | > 100 µM (inactive) | > 100 µM (inactive) | 38.5 µM (inactive) | 94 µM (inactive) |
| CCC1(C)C=Cc2c(cc(OC)c3c(=O)c4ccccc4n(C)c23)O1 (centres undefined) | 2.44 µM (inactive) | 9.51 µM (inactive) | 9.98 µM (inactive) | > 10 µM (inactive) | > 10 µM (inactive) | 1.15 µM (inactive) | > 10 µM (inactive) | 9.16 µM (inactive) | > 10 µM (inactive) | 5.4 µM (inactive) | > 10 µM (inactive) | 9.27 µM (inactive) | > 10 µM (inactive) | > 10 µM (inactive) | 7.13 µM (inactive) | 3.83 µM (inactive) | > 10 µM (inactive) | 9.55 µM (inactive) | > 10 µM (inactive) | 5.27 µM (inactive) |
| CCc1nc2c(c(N(C)C)c1C(=O)OC)CCc1ccccc1-2 | 31.2 µM (inactive) | 44.8 µM (inactive) | 16.9 µM (inactive) | 17.8 µM (inactive) | 27.2 µM (inactive) | 37.4 µM (inactive) | 23 µM (inactive) | 38.5 µM (inactive) | 1.5 µM (inactive) | 35 µM (inactive) | 35.5 µM (inactive) | 2.45 µM (inactive) | 32.2 µM (inactive) | 20.2 µM (inactive) | 35.4 µM (inactive) | 18.7 µM (inactive) | 4.14 µM (inactive) | 13.4 µM (inactive) | 30.9 µM (inactive) | 39.5 µM (inactive) |
| CCN(CC)CCCNc1ncc(C)c2c1c1ccc3c(O)cccc3c1n2C | 1.95 µM (inactive) | 1.66 µM (inactive) | 18 µM (inactive) | 12.2 µM (inactive) | 1.29 µM (inactive) | 7.89 µM (inactive) | 1.8 µM (inactive) | 9.82 µM (inactive) | 1.57 µM (inactive) | 1.89 µM (inactive) | 10.5 µM (inactive) | 0.392 µM (active) | 5.57 µM (inactive) | 13.6 µM (inactive) | 1.81 µM (inactive) | 1.47 µM (inactive) | 0.043 µM (active) | 3.87 µM (inactive) | 1.1 µM (active) | 0.789 µM (active) |
| CC1CNC(c2cccc(-c3nc(-c4cccc(C5=NC(C)CN5)c4)nc(N(C)C)n3)c2)=N1 (centres undefined) | 3.21 µM (inactive) | 0.771 µM (active) | 1.82 µM (inactive) | 2.02 µM (inactive) | 1.12 µM (inactive) | 3.77 µM (inactive) | 3.12 µM (inactive) | 3.13 µM (inactive) | 2.09 µM (inactive) | 3.19 µM (inactive) | 2.78 µM (inactive) | 0.587 µM (active) | 2.57 µM (inactive) | 2.05 µM (inactive) | 1.91 µM (inactive) | 2.75 µM (inactive) | 0.373 µM (active) | 1.53 µM (inactive) | 0.653 µM (active) | 1.53 µM (inactive) |
| Cc1nc2ccccc2n1CCc1nc2ccccc2[nH]1 | > 100 µM (inactive) | > 100 µM (inactive) | > 100 µM (inactive) | > 100 µM (inactive) | > 100 µM (inactive) | > 100 µM (inactive) | > 100 µM (inactive) | > 100 µM (inactive) | > 100 µM (inactive) | > 100 µM (inactive) | > 100 µM (inactive) | > 100 µM (inactive) | > 100 µM (inactive) | > 100 µM (inactive) | > 100 µM (inactive) | > 100 µM (inactive) | > 100 µM (inactive) | > 100 µM (inactive) | > 100 µM (inactive) | > 100 µM (inactive) |
| CC1=CC2(C)C=C[C@@H]1C(=O)[C@@]1(C)CC[C@@](O)(C(C)C)[C@H]1CC2 | 19.4 µM (inactive) | 17.8 µM (inactive) | 20.1 µM (inactive) | 33.3 µM (inactive) | 19.1 µM (inactive) | 17.6 µM (inactive) | 17.6 µM (inactive) | 20.9 µM (inactive) | 28.9 µM (inactive) | 33.8 µM (inactive) | 36.6 µM (inactive) | 21.6 µM (inactive) | 17.9 µM (inactive) | 28.6 µM (inactive) | 20.9 µM (inactive) | 26.5 µM (inactive) | 24.8 µM (inactive) | 16.1 µM (inactive) | 18.1 µM (inactive) | 17.3 µM (inactive) |
| CC(C)OC(=O)OCSc1ccccc1/N=C/c1cccc([N+](=O)[O-])c1 | > 10 µM (inactive) | > 10 µM (inactive) | > 10 µM (inactive) | > 10 µM (inactive) | > 10 µM (inactive) | > 10 µM (inactive) | > 10 µM (inactive) | > 10 µM (inactive) | > 10 µM (inactive) | > 10 µM (inactive) | > 10 µM (inactive) | > 10 µM (inactive) | > 10 µM (inactive) | > 10 µM (inactive) | > 10 µM (inactive) | > 10 µM (inactive) | > 10 µM (inactive) | > 10 µM (inactive) | > 10 µM (inactive) | > 10 µM (inactive) |
| O=C(CCOS(=O)(=O)CF)N1CCN(C(=O)CCOS(=O)(=O)CF)CC1 | 59.3 µM (inactive) | > 100 µM (inactive) | 16.4 µM (inactive) | > 100 µM (inactive) | 16.9 µM (inactive) | 66.7 µM (inactive) | 17.1 µM (inactive) | > 100 µM (inactive) | 35.9 µM (inactive) | > 100 µM (inactive) | > 100 µM (inactive) | 3.27 µM (inactive) | > 100 µM (inactive) | > 100 µM (inactive) | 10.1 µM (inactive) | > 46.5 µM (inactive) | 3.03 µM (inactive) | > 100 µM (inactive) | 29.8 µM (inactive) | 28.4 µM (inactive) |
| C/C(=N\Nc1nc2ccccc2s1)c1cc2ccccc2cn1 | 3.61 µM (inactive) | 1.75 µM (inactive) | 3.51 µM (inactive) | 6.79 µM (inactive) | 2.49 µM (inactive) | 1.48 µM (inactive) | 2.88 µM (inactive) | 6.3 µM (inactive) | 3.85 µM (inactive) | 6.05 µM (inactive) | 3.94 µM (inactive) | 2.81 µM (inactive) | 4.38 µM (inactive) | 10.9 µM (inactive) | 3.24 µM (inactive) | 3.21 µM (inactive) | 0.41 µM (active) | 1.65 µM (inactive) | 4.68 µM (inactive) | 2.52 µM (inactive) |
| CCOC(=O)C1=[N+]([O-])OC2=C(O)CCCC21 (centres undefined) | > 100 µM (inactive) | > 100 µM (inactive) | > 100 µM (inactive) | > 100 µM (inactive) | > 100 µM (inactive) | > 100 µM (inactive) | > 100 µM (inactive) | > 100 µM (inactive) | > 100 µM (inactive) | > 100 µM (inactive) | > 100 µM (inactive) | > 100 µM (inactive) | > 100 µM (inactive) | > 100 µM (inactive) | > 100 µM (inactive) | > 100 µM (inactive) | > 100 µM (inactive) | > 100 µM (inactive) | > 100 µM (inactive) | > 100 µM (inactive) |
| Nc1ncnc2c1nc(Cl)n2[C@@H]1O[C@@H]2COP(=O)(O)O[C@H]2[C@H]1O [TOCLADESINE] | 7.35 µM (inactive) | 16.6 µM (inactive) | 15.7 µM (inactive) | > 99.8 µM (inactive) | 2.7 µM (inactive) | 16.4 µM (inactive) | 5.05 µM (inactive) | 295 µM (inactive) | 12.5 µM (inactive) | 5.69 µM (inactive) | 15.1 µM (inactive) | 3.48 µM (inactive) | 27.7 µM (inactive) | 67.6 µM (inactive) | 31.8 µM (inactive) | 6.47 µM (inactive) | 7 µM (inactive) | 44.9 µM (inactive) | 67.8 µM (inactive) | 8.85 µM (inactive) |
| NC(=O)NC(=O)C1CCCCC1C(=O)O (centres undefined) | > 100 µM (inactive) | > 100 µM (inactive) | > 100 µM (inactive) | > 100 µM (inactive) | > 100 µM (inactive) | > 100 µM (inactive) | > 100 µM (inactive) | > 100 µM (inactive) | > 100 µM (inactive) | > 100 µM (inactive) | > 100 µM (inactive) | > 100 µM (inactive) | > 100 µM (inactive) | > 100 µM (inactive) | > 100 µM (inactive) | > 100 µM (inactive) |  | > 100 µM (inactive) | > 100 µM (inactive) | > 100 µM (inactive) |
